Measurements taken from patent US8193189B2, “Quinoxaline derivatives as tyrosine kinase activity inhibitors” (Novartis AG, priority 2007, dated 2012).

Key:
GST-JAK1(866-1154) = biological target: T1, GST-JAK1(866-1154) (Homo sapiens, UniProt P23458); experiment: EPK JAK-family kinases profiling assay (Caliper mobility shift), JAK1; assay type: biochemical; details: ATP 40 μM, 50 nM kinase
T1 construct: GST-JAK1(866-1154); made in house
Outline: (§1)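 Turnover was read as substrate/product ratio after mobility-shift capillary-like separation of each reaction, run for 60 min at 30 °C with GST-tagged kinase domain, labelled peptide and ATP, and terminated with EDTA stop buffer.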

GST-JAK2(808-1132) = biological target: T2, GST-JAK2(808-1132) (Homo sapiens, UniProt O60674); experiment: EPK JAK-family kinases profiling assay (Caliper mobility shift), JAK2; assay type: biochemical; details: ATP 20 μM, 1.8 nM kinase
T2 construct: GST-JAK2(808-1132); purchased Invitrogen (Carlsbad, USA) #4288
T2 sequence (O60674 808-1132): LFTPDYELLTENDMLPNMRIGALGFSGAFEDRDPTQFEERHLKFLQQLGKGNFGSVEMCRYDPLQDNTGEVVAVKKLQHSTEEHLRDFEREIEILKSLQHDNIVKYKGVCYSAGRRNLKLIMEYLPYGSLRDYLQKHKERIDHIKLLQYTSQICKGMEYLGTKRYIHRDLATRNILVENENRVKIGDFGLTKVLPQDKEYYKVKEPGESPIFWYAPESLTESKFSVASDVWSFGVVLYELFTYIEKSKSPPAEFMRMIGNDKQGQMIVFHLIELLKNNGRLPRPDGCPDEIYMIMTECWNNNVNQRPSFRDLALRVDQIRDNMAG
Outline: as §1

GST-JAK3(811-1124) = biological target: T3, GST-JAK3(811-1124) (Homo sapiens, UniProt P52333); experiment: EPK JAK-family kinases profiling assay (Caliper mobility shift), JAK3; assay type: biochemical; details: ATP 80 μM, 6 nM kinase
T3 construct: GST-JAK3(811-1124); made in house
T3 sequence (P52333 811-1124): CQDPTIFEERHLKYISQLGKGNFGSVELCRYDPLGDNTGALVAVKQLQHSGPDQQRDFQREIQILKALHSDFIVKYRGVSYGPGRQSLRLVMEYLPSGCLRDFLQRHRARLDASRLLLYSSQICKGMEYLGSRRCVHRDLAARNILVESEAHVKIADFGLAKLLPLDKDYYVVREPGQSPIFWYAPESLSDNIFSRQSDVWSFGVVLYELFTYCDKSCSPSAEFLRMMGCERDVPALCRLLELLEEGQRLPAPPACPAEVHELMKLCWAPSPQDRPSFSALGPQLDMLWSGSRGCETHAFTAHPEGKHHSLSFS
Outline: as §1

GST-TYK2(888-1187) = biological target: T4, GST-TYK2(888-1187) (Homo sapiens, UniProt P29597); experiment: EPK JAK-family kinases profiling assay (Caliper mobility shift), TYK2; assay type: biochemical; details: ATP 30 μM, 40 nM kinase
T4 construct: GST-TYK2(888-1187); made in house
T4 sequence (P29597 888-1187): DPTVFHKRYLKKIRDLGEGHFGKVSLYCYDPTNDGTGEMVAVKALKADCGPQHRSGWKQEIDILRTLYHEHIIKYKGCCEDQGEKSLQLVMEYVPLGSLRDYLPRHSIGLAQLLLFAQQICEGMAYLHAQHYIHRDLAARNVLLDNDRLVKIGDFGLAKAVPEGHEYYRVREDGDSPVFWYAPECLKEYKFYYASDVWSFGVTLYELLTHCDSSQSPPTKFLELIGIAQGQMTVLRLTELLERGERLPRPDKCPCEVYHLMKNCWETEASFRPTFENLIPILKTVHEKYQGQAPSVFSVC
Excerpt: All four kinases of the JAK-family kinases were used as purified recombinant GST-fusion proteins, containing the active kinase domains. GST-JAK1(866-1154), GST-JAK3(811-1124), and GST-TYK2(888-1187) were expressed and purified by affinity chromatography at the EPK biology unit. GST-JAK2(808-1132) was purchased from Invitrogen (Carlsbad, USA, #4288).
The kinase assays were based on the Caliper mobility shift assay using the LabChip 3000 systems. This technology is similar to capillary electrophoresis and uses charge driven separation of substrate and product in a microfluidic chip.
All kinase reactions were performed in 384 well microtiter plates in a total reaction volume of 18 μl. The assay plates were prepared with 0.1 μl per well of test compound in the appropriate test concentration, as described under the section “preparation of compound dilutions”. The reactions were started by combining 9 μl of substrate mix (consisting of peptide and ATP) with 9 μl of kinase dilution. The reactions were incubated for 60 minutes at 30° C. and stopped by adding 70 μl of stop buffer (100 mM Hepes, 5% DMSO, 0.1% Coating reagent, 10 mM EDTA, 0.015% Brij 35).
Fluorescently labeled synthetic peptides were used as substrates in all reactions. […] Specific assay conditions are described in Table 1:
The terminated reactions were transferred to the Caliper LabChip 3000 reader and the turnover of each reaction was measured by determining the substrate/product ratio.
Test compounds were dissolved in DMSO (10 mM) and transferred into 1.4 mL flat bottom or V-shaped Matrix tubes carrying a unique 2D matrix chip by individual compound hubs. The numbers of these chips were distinctively linked to the individual compound identification numbers. The stock solutions were stored at −20° C. if not used immediately. For the test procedure the vials were defrosted and identified by a scanner whereby a working sheet was generated that guided the subsequent working steps.
Compound dilutions were made in 96 well plates. This format enabled the assay of maximally 40 individual test compounds at 8 concentrations (single points) including 4 reference compounds. The dilution protocol included the production of pre-dilution plates, master plates and assay plates:
Pre-dilution plates: 96 polypropylene well plates were used as pre-dilution plates. A total of 4 pre-dilution plates were prepared including 10 test compounds each on the plate positions A1-A10, one standard compound at A11 and one DMSO control at A12. All dilution steps were done on a HamiltonSTAR robot.
Master plates: 100 μL of individual compound dilutions including standard compound and controls of the 4 “pre-dilution plates” were transferred into a 384 “master plate” including the following concentrations 1′820, 564, 182, 54.6, 18.2, 5.46, 1.82 and 0.546 μM, respectively in 90% of DMSO.
Assay plates: Identical assay plates were then prepared by pipetting 100 nL each of compound dilutions of the master plates into 384-well “assay plates”. […] The preparation of the master plates were handled by the Matrix PlateMate Plus robot and replication of assay plates by the HummingBird robot.

[1] = system: JAK/STAT pathway (JAK1/JAK2-dependent nuclear translocation of STAT1-GFP); experiment: Inhibition of the JAK/STAT pathway: IFN-γ stimulated nuclear translocation of STAT1-GFP in HT1080 fibrosarcoma cells; assay type: cell-based; details: Homo sapiens, HT-1080; HT1080 STAT1-GFP cells, 100 ng/ml IFN-γ 2 hours, compound added 30 min before; read-out: STAT1translo IC50
Outline: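 HT1080 cells stably expressing STAT1-GFP, compounds added 30 min before IFN-γ stimulation at final 10 μM down to 0.003 μM (0.1% DMSO). Nuclear-cytoplasmic GFP intensity differential quantified by automated imaging with Hoechst nuclear mask, ≥1000 cells per well, averaged per well.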

T1 sequence (P23458 866-1154): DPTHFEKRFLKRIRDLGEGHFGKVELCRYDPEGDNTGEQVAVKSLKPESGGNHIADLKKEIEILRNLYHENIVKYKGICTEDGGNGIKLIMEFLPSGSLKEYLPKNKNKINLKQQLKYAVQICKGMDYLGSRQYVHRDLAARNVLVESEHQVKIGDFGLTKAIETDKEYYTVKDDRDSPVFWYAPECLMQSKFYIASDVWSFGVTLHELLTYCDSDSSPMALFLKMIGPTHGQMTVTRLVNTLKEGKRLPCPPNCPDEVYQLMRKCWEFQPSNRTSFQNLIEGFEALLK

| IC50 (GST-JAK1(866-1154)) [µM] | IC50 (GST-JAK2(808-1132)) [µM] | IC50 (GST-JAK3(811-1124)) [µM] | IC50 (GST-TYK2(888-1187)) [µM] | IC50 [1] [µM] | Structure (SMILES) |
| --- | --- | --- | --- | --- | --- |
| 0.715 | 0.018 | 2.15 | 1.45 | 0.857 | Cc1cc(-c2cnc3cccc(-c4cc(F)c(CN5CCOCC5)c(F)c4)c3n2)ccc1C(=O)N1CCN(C)CC1 [Example 42, {4-[8-(3,5-Difluoro-4-morpholin-4-ylmethyl-phenyl)-quinoxalin-2-yl]-2-methyl-phenyl}-(4-methyl-piperazin-1-yl)-methanone] |
| 0.038 | 0.00705 | > 10 | 1.6 | 1.65 | COCCOc1ccc(-c2cnc3cccc(-c4cc(F)c(CN5CCOCC5)c(F)c4)c3n2)cc1OC [Example 50, 8-(3,5-Difluoro-4-morpholin-4-ylmethyl-phenyl)-2-[3-methoxy-4-(2-methoxy-ethoxy)-phenyl]-quinoxaline] |
| 0.068 | 0.00495 | 0.29 | 0.165 | 0.0465 | Cc1cc(-c2cnc3cccc(-c4cc(F)c(CN5CCS(=O)(=O)CC5)c(F)c4)c3n2)ccc1C(=O)N1CCOCC1 [Example 64, (4-{8-[4-(1,1-Dioxido-thiomorpholin-4-ylmethyl)-3,5-difluoro-phenyl]-quinoxalin-2-yl}-2-methyl-phenyl)-morpholin-4-yl-methanone] |
| 0.575 | 0.014 | 1.02 | 1.45 | – | Cc1cc(-c2cnc3cccc(-c4cc(F)c(CN5CCOCC5)c(F)c4)c3n2)ccc1C(=O)N1CCC(N(C)C)CC1 [Example 101, {4-[8-(3,5-Difluoro-4-morpholin-4-ylmethyl-phenyl)-quinoxalin-2-yl]-2-methyl-phenyl}-(4-dimethylamino-piperidin-1-yl)-methanone] |
| 0.243 | 0.008 | 2.9 | 0.437 | – | Fc1cc(-c2cccc3ncc(-c4cnn(C5CNC5)c4)nc23)cc(F)c1CN1CCOCC1 [Example 116, 2-(1-Azetidin-3-yl-1H-pyrazol-4-yl)-8-(3,5-difluoro-4-morpholin-4-ylmethyl-phenyl)-quinoxaline] |
| 0.475 | 0.00935 | 3.25 | 0.54 | – | COCCOC(=O)N1CCC(n2cc(-c3cnc4cccc(-c5cc(F)c(CN6CCOCC6)c(F)c5)c4n3)cn2)CC1 [Example 122, 4-{4-[8-(3,5-Difluoro-4-morpholin-4-ylmethyl-phenyl)-quinoxalin-2-yl]-pyrazol-1-yl}-piperidine-1-carboxylic acid 2-methoxy-ethyl ester] |
| 0.021 | 0.004 | – | 0.14 | 0.296 | CN1CCN(c2cccc(-c3cnc4cccc(-c5cc(F)c(CN6CCS(=O)(=O)CC6)c(F)c5)c4n3)c2)CC1 [Example 170, 8-[4-(1,1-Dioxido-thiomorpholin-4-ylmethyl)-3,5-difluoro-phenyl]-2-[3-(4-methyl-piperazin-1-yl)-phenyl]-quinoxaline] |

Further lines, the compound ahead of its results:

| Structure (SMILES) | IC50 (GST-JAK1(866-1154)) [µM] | IC50 (GST-JAK2(808-1132)) [µM] | IC50 (GST-JAK3(811-1124)) [µM] | IC50 (GST-TYK2(888-1187)) [µM] | IC50 [1] [µM] |
| --- | --- | --- | --- | --- | --- |
| COc1cc(-c2cnc3cccc(-c4ccc(CC(=O)N5CCOCC5)cc4)c3n2)ccc1OCCN1CCOCC1 [Example 34, 2-(4-{3-[3-Methoxy-4-(2-morpholin-4-yl-ethoxy)-phenyl]-quinoxalin-5-yl}-phenyl)-1-morpholin-4-yl-ethanone] | 0.027 | 0.0041 | 0.49 | 0.088 | 0.338 |
| COc1cc(-c2cnc3cccc(-c4ccc(C(=O)N5CCOCC5)c(F)c4)c3n2)ccc1OCCN1CCOCC1 [Example 35, (2-Fluoro-4-{3-[3-methoxy-4-(2-morpholin-4-yl-ethoxy)-phenyl]-quinoxalin-5-yl}-phenyl)-morpholin-4-yl-methanone] | 0.094 | 0.0119 | 1.86 | 0.52 | 1.72 |
| Cc1cc(-c2cccc3ncc(-c4ccc(C(=O)N5CCN(C)CC5)c(C)c4)nc23)ccc1CN1CCS(=O)(=O)CC1 [Example 43, (4-{8-[4-(1,1-Dioxido-thiomorpholin-4-ylmethyl)-3-methyl-phenyl]-quinoxalin-2-yl}-2-methyl-phenyl)-(4-methyl-piperazin-1-yl)-methanone] | 0.42 | 0.027 | 0.87 | 0.715 | 1.13 |
| Cc1cc(-c2cnc3cccc(-c4cc(F)c(CN5CCS(=O)(=O)CC5)c(F)c4)c3n2)ccc1C(=O)N1CCN(C)CC1 [Example 44, (4-{8-[4-(1,1-Dioxido-thiomorpholin-4-ylmethyl)-3,5-difluoro-phenyl]-quinoxalin-2-yl}-2-methyl-phenyl)-(4-methyl-piperazin-1-yl)-methanone] | 0.15 | 0.00655 | 0.405 | 0.24 | 0.049 |
| COCCOc1ccc(-c2cnc3cccc(-c4ccc(CN5CCOCC5)c(F)c4)c3n2)cc1OC [Example 51, 8-(3-Fluoro-4-morpholin-4-ylmethyl-phenyl)-2-[3-methoxy-4-(2-methoxy-ethoxy)-phenyl]-quinoxaline] | 0.12 | 0.0315 | > 10 | > 10 | 2.04 |
| COCCOc1ccc(-c2cnc3cccc(-c4ccc(CN5CCS(=O)(=O)CC5)c(C)c4)c3n2)cc1OC [Example 52, 8-[4-(1,1-Dioxido-thiomorpholin-4-ylmethyl)-3-methyl-phenyl]-2-[3-methoxy-4-(2-methoxy-ethoxy)-phenyl]-quinoxaline] | 0.0975 | 0.032 | 1.1 | 0.985 | 2.95 |
| COCCOc1ccc(-c2cnc3cccc(-c4cc(F)c(CN5CCS(=O)(=O)CC5)c(F)c4)c3n2)cc1OC [Example 53, 8-[4-(1,1-Dioxido-thiomorpholin-4-ylmethyl)-3,5-difluoro-phenyl]-2-[3-methoxy-4-(2-methoxy-ethoxy)-phenyl]-quinoxaline] | 0.012 | < 0.003 | 0.215 | 0.0935 | 0.15 |
| Cc1cc(-c2cnc3cccc(-c4ccc(CN5CCS(=O)(=O)CC5)cc4)c3n2)ccc1C(=O)N1CCOCC1 [Example 63, (4-{8-[4-(1,1-Dioxido-thiomorpholin-4-ylmethyl)-phenyl]-quinoxalin-2-yl}-2-methyl-phenyl)-morpholin-4-yl-methanone] | 0.37 | 0.0775 | 4.3 | 1.45 | 0.987 |
| Cc1cc(-c2cnc3cccc(-c4ccc(CN5CCS(=O)(=O)CC5)c(C)c4)c3n2)ccc1CN1CCOCC1 [Example 70, 8-[4-(1,1-Dioxido-thiomorpholin-4-ylmethyl)-3-methyl-phenyl]-2-(3-methyl-4-morpholin-4-ylmethyl-phenyl)-quinoxaline] | 0.36 | 0.0305 | 1.75 | 1.35 | 0.564 |
